Values quoted from earlier work as cited in patent US9913917B2, “Biocompatible fluorescent metal oxide nanoparticles” (VisEn Medical, Inc., priority 2005, dated 2018).

Settings: free fluorochrome

- Absorbance max: 675 nm
- εmax: 250,000 M^−1cm^−1
Substance: Cy5.5
